{
  "source": "patent US20220324865A1",
  "about": "(Bayer Aktiengesellschaft, priority 2018, published 2022)",
  "note": "Counter-ions that a name gives are not always drawn.",
  "data": [
    {"target": "T1, human EP3 receptor (Homo sapiens, UniProt P43115)", "T1 construct": "expressed in transfected cells; host or cells: CHO K1 (Chinese Hamster Ovary), stably co-transfected with Galpha16 and mitochondrial clytin", "T1 sequence (P43115 1-390)": "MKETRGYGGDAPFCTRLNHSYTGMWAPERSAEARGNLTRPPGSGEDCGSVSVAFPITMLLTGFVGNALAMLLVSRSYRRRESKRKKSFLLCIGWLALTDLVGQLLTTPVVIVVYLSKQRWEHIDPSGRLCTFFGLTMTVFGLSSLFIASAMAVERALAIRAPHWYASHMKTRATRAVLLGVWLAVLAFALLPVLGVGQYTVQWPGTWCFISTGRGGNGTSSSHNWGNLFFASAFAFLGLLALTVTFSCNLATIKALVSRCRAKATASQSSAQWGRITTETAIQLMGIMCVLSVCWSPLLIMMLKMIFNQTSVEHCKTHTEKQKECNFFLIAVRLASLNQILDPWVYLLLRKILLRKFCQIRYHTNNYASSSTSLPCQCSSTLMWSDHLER", "test": "Cellular in vitro assay for determining EP3 receptor activity (human EP3 cell line, sulprostone-stimulated calcium luminescence)", "format": "cell-based", "details": "CHO cells expressing human EP3 and mitochondrial Clytin; antagonist mode, sulprostone at EC50; read-out: EP3 CHO mtCLY ANTAG IC50", "outline": "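Antagonist activity was measured as inhibition of the luminescent calcium signal elicited by EC50 sulprostone, following 10 min compound pretreatment. The cell line was recombinant CHO K1 co-expressing human EP3, Gα16 and the photoprotein Clytin, reconstituted with coelenterazine.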", "units": {"IC50": "nM"}, "values": [
      {"molecule": "CC[C@@H](C)NC(=O)c1nn2cc(-c3ccc(C)c(C)c3)[nH]c(=O)c2c1C(C)C", "note": "[Example 1-140, N-[(2R)-Butan-2-yl]-6-(3,4-dimethylphenyl)-4-oxo-3-(propan-2-yl)-4,5-dihydropyrazolo[1,5-a]-pyrazine-2-carboxamide]", "IC50": 1.95},
      {"molecule": "C[C@@H](CO)NC(=O)c1nn2cc(-c3ccc4ccccc4c3)[nH]c(=O)c2c1C(F)(F)F", "note": "[6-526]", "IC50": 9.43},
      {"molecule": "Cc1cc(-c2cn3nc(C(=O)NC4(c5ccccc5)CCOCC4)c(C4CC4)c3c(=O)[nH]2)ccc1Cl", "note": "[6-342]", "IC50": 1.07},
      {"molecule": "CC(C)(O)[C@@H](NC(=O)c1nn2cc(-c3cc(F)c(Cl)c(F)c3)[nH]c(=O)c2c1C1CC1)c1ccc(F)cc1", "note": "[6-475]", "IC50": 2.58},
      {"molecule": "Cc1ccc(-c2cn3nc(C(=O)NCC(O)C(F)(F)F)c(C)c3c(=O)[nH]2)cc1F", "note": "(single isomer, unassigned) [6-410]", "IC50": 5.18},
      {"molecule": "Cc1ccc(-c2cn3nc(C(=O)N[C@H](C)c4ccc(F)cc4)cc3c(=O)[nH]2)cc1C", "note": "[6-36]", "IC50": 1.2},
      {"molecule": "Cc1ccc(-c2cn3nc(C(=O)N[C@H](CCO)c4ccc(F)cc4)c(C)c3c(=O)[nH]2)cc1F", "note": "[6-408]", "IC50": 1.03},
      {"molecule": "CC[C@@H](C)NC(=O)c1nn2cc(-c3ccc(C)c(Cl)c3)[nH]c(=O)c2c1C(F)(F)F", "note": "[Example 1-152, N-[(2R)-Butan-2-yl]-6-(3-chloro-4-methylphenyl)-4-oxo-3-(trifluoromethyl)-4,5-dihydropyrazolo-[1,5-a]pyrazine-2-carboxamide]", "IC50": 2.1},
      {"molecule": "CN1CC(NC(=O)c2nn3cc(-c4ccc5c(c4)OCCO5)[nH]c(=O)c3c2C(F)(F)F)(c2ccc(F)cc2)C1", "note": "[6-535]", "IC50": 4.2},
      {"molecule": "Cc1ccc(-c2cn3nc(C(=O)N[C@H](CCO)c4ccc(F)cc4)cc3c(=O)[nH]2)cc1F", "note": "[6-638]", "IC50": 1.36},
      {"molecule": "Cc1cc(-c2cn3nc(C(=O)NC(C)C4CCC4)c(C4CC4)c3c(=O)[nH]2)ccc1Cl", "note": "(single isomer, unassigned) [6-299]", "IC50": 4.4},
      {"molecule": "Cc1c(C(=O)NC(C)c2ccc(Cl)c(Cl)c2)nn2c(C)c(-c3ccc4ccccc4c3)[nH]c(=O)c12", "note": "(stereo not drawn) [Example 3-16, N-[1-(3,4-Dichlorophenyl)ethyl]-3,7-dimethyl-6-(2-naphthyl)-4-oxo-5H-pyrazolo[1,5-a]pyrazine-2-carboxamide]", "IC50": 7.2},
      {"molecule": "Cc1ccc(-c2cn3nc(C(=O)N[C@@H](c4ccc(F)cc4)C(F)(F)CO)c(C4CC4)c3c(=O)[nH]2)cc1F", "note": "[6-375]", "IC50": 1.07},
      {"molecule": "Cc1ccc(-c2cn3nc(C(=O)N[C@@H](c4ccc(F)cc4)C(F)(F)CO)c(C)c3c(=O)[nH]2)cc1F", "note": "[6-412]", "IC50": 1.43},
      {"molecule": "CC[C@@H](NC(=O)c1nn2cc(-c3ccc4ccccc4c3)[nH]c(=O)c2c1C#N)c1ccccc1", "note": "[Example 3-61, 3-Cyano-6-(naphthalen-2-yl)-4-oxo-N-[(1R)-1-phenylpropyl]-4,5-dihydropyrazolo[1,5-a]pyrazine-2-carboxamide]", "IC50": 2},
      {"molecule": "O=C(N[C@H](CCO)c1ccc(F)cc1)c1cc2c(=O)[nH]c(-c3ccc4c(c3)COCC4)cn2n1", "note": "[Example 1-24, 6-(3,4-Dihydro-1H-isochromen-7-yl)-N-[(1R)-1-(4-fluorophenyl)-3-hydroxypropyl]-4-oxo-4,5-dihydropyrazolo[1,5-a]pyrazine-2-carboxamide]", "IC50": 7.3},
      {"molecule": "Cc1cccc2ncc(-c3cn4nc(C(=O)NC(C)c5ccccc5OC(F)F)c(C(C)C)c4c(=O)[nH]3)cc12", "note": "(stereo not drawn) [Example 4-46, N-{1-[2-(Difluoromethoxy)phenyl]ethyl}-3-isopropyl-6-(5-methylquinolin-3-yl)-4-oxo-4,5-dihydropyrazolo[1,5-a]pyrazine-2-carboxamide]", "IC50": 1.05},
      {"molecule": "Cc1cc(-c2cn3nc(C(=O)N[C@@H](c4ccc(F)cc4)C(F)(F)CO)c(C4CCC4)c3c(=O)[nH]2)ccc1Cl", "note": "[6-619]", "IC50": 1.15},
      {"molecule": "Cc1cccc2ncc(-c3cn4nc(C(=O)NC5(c6ccc(F)cc6)CN(C)C5)c(C(C)C)c4c(=O)[nH]3)cc12", "note": "[Example 1-25, N-[3-(4-Fluorophenyl)-1-methylazetidin-3-yl]-6-(5-methylquinolin-3-yl)-4-oxo-3-(propan-2-yl)-4,5-dihydropyrazolo[1,5-a]pyrazine-2-carboxamide]", "IC50": 5.8},
      {"molecule": "CC(C)(O)[C@@H](NC(=O)c1cc2c(=O)[nH]c(-c3ccc4c(c3)CCC4)cn2n1)c1ccc(F)cc1", "note": "[Example 1-134, 6-(2,3-Dihydro-1H-inden-5-yl)-N-[(1S)-1-(4-fluorophenyl)-2-hydroxy-2-methylpropyl]-4-oxo-4,5-dihydropyrazolo[1,5-a]pyrazine-2-carboxamide]", "IC50": 5.75},
      {"molecule": "COc1ccc(CNC(=O)c2cc3c(=O)[nH]c(-c4ccc5c(c4)OCCO5)cn3n2)cc1OC", "note": "[6-76]", "IC50": 1.87},
      {"molecule": "Cc1ccc(-c2cn3nc(C(=O)NC(C)COc4cc(Cl)cc(Cl)c4)cc3c(=O)[nH]2)cc1C", "note": "(stereo not drawn) [6-3]", "IC50": 7.95},
      {"molecule": "O=C(N[C@@H](c1ccc(F)cc1)C(F)(F)CO)c1nn2cc(-c3cc(F)c(Cl)c(F)c3)[nH]c(=O)c2c1C1CC1", "note": "[6-474]", "IC50": 1.63},
      {"molecule": "Cc1cccc2ncc(-c3cn4nc(C(=O)NC(C)(C)c5cc(Cl)cc(Cl)c5)c(C(C)C)c4c(=O)[nH]3)cc12", "note": "[Example 4-8, N-[2-(3,5-Dichlorophenyl)propan-2-yl]-6-(5-methylquinolin-3-yl)-4-oxo-3-(propan-2-yl)-4,5-dihydropyrazolo[1,5-a]pyrazine-2-carboxamide]", "IC50": 4.3},
      {"molecule": "CC[C@@H](C)NC(=O)c1nn2cc(-c3cnc4cccc(C)c4c3)[nH]c(=O)c2c1C(F)(F)F", "note": "[6-547]", "IC50": 7.8},
      {"molecule": "C[C@@H](NC(=O)c1cc2c(=O)[nH]c(-c3ccc4ccccc4c3)cn2n1)c1ccc2ccccc2c1", "note": "[Example 2-41, 6-(2-Naphthyl)-N-[(7R)-1-(2-naphthyl)ethyl]-4-oxo-4,5-dihydropyrazolo[1,5-a]pyrazine-2-carboxamide]", "IC50": 2.15},
      {"molecule": "O=C(NC(c1ccccc1)C(F)F)c1cc2c(=O)[nH]c(-c3ccc4c(c3F)OCCO4)cn2n1", "note": "(stereo not drawn) [Example 1-110, N-(2,2-Difluoro-1-phenylethyl)-6-(5-fluoro-2,3-dihydro-1,4-benzodioxin-6-yl)-4-oxo-4,5-dihydro-pyrazolo[1,5-a]pyrazine-2-carboxamide]", "IC50": 1.01},
      {"molecule": "CC(NC(=O)c1cc2c(=O)[nH]c(-c3ccc4c(c3)OCCO4)cn2n1)c1ccc(F)cc1", "note": "(stereo not drawn) [Example 5-2, 6-(2,3-Dihydro-1,4-benzodioxin-6-yl)-N-[1-(4-fluorophenyl)ethyl]-4-oxo-5H-pyrazolo[1,5-a]pyrazine-2-carboxamide]", "IC50": 1.65},
      {"molecule": "CCN1CC(NC(=O)c2cc3c(=O)[nH]c(-c4ccc5ccccc5c4)cn3n2)(c2ccc(F)cc2)C1", "note": "[Example 1-145, N-[3-(4-Fluorophenyl)-1-ethylazetidin-3-yl]-6-(naphthalen-2-yl)-4-oxo-4,5-dihydropyrazolo[1,5-a]-pyrazine-2-carboxamide formic acid salt]", "IC50": 7.05},
      {"molecule": "CC(NC(=O)c1cc2c(=O)[nH]c(-c3ccc4ccccc4c3)cn2n1)c1cnc(OCC(F)(F)F)cn1", "note": "(stereo not drawn) [6-7]", "IC50": 7},
      {"molecule": "CC(C)c1c(C(=O)N[C@@H](C)C2CC2)nn2cc(-c3ccc(Cl)c(F)c3)[nH]c(=O)c12", "note": "[6-539]", "IC50": 3.3},
      {"molecule": "COc1ccc(CNC(=O)c2cc3c(=O)[nH]c(-c4ccc(C)c(Cl)c4)cn3n2)cc1OC", "note": "[6-80]", "IC50": 2.2},
      {"molecule": "Cc1cccc2ncc(-c3cn4nc(C(=O)NC5CCOC5)c(C(C)C)c4c(=O)[nH]3)cc12", "note": "(stereo not drawn) [Example 4-21, 3-Isopropyl-6-(5-methyl-3-quinolyl)-4-oxo-N-(tetrahydrofuran-3-yl)-5H-pyrazolo[1,5-a]pyrazine-2-carboxamide]", "IC50": 1.95},
      {"molecule": "COc1cccc(C(CCO)NC(=O)c2nn3cc(-c4cnc5cccc(C)c5c4)[nH]c(=O)c3c2C(C)C)c1", "note": "(stereo not drawn) [Example 4-45, N-[3-Hydroxy-1-(3-methoxyphenyl)propyl]-3-isopropyl-6-(5-methyl-3-quinolyl)-4-oxo-5H-pyrazolo[1,5-a]pyrazine-2-carboxamide]", "IC50": 0.61},
      {"molecule": "Cc1ccc(-c2cn3nc(C(=O)NCC(N)C(F)(F)F)c(C4CC4)c3c(=O)[nH]2)cc1F", "note": "(racemic) [6-395]", "IC50": 6.6},
      {"molecule": "Cc1cc(-c2cn3nc(C(=O)N[C@H](CCO)c4ccc(F)cc4)c(C4CC4)c3c(=O)[nH]2)ccc1Cl", "note": "[6-343]", "IC50": 0.28},
      {"molecule": "Cc1ccc(-c2cn3nc(C(=O)N[C@H](C)c4ccc(F)cc4)c(C(F)(F)F)c3c(=O)[nH]2)cc1C", "note": "[Example 1-95, 6-(3,4-Dimethylphenyl)-N-[(1R)-1-(4-fluorophenyl)ethyl]-4-oxo-3-(trifluoromethyl)-4,5-dihydropyrazolo[1,5-a]pyrazine-2-carboxamide]", "IC50": 1.7},
      {"molecule": "CC[C@@H](C)NC(=O)c1nn2cc(-c3ccc(C)c(C)c3)[nH]c(=O)c2c1C1CC1", "note": "[Example 1-142, N-[(2R)-Butan-2-yl]-3-cyclopropyl-6-(3,4-dimethylphenyl)-4-oxo-4,5-dihydropyrazolo[1,5-a]-pyrazine-2-carboxamide]", "IC50": 1.16},
      {"molecule": "O=C(NC1CCN(CC(F)F)C1)c1nn2cc(-c3ccc4ccccc4c3)[nH]c(=O)c2c1C(F)(F)F", "note": "(single isomer, unassigned) [6-519]", "IC50": 6.9},
      {"molecule": "COc1ccc(C(C)NC(=O)c2nn3cc(-c4ccc5ccccc5c4)[nH]c(=O)c3c2C#N)cn1", "note": "(stereo not drawn) [Example 3-50, 3-Cyano-N-[1-(6-methoxy-3-pyridyl)ethyl]-6-(2-naphthyl)-4-oxo-5H-pyrazolo[1,5-a]pyrazine-2-carboxamide]", "IC50": 1.75},
      {"molecule": "Cc1ccc(-c2cn3nc(C(=O)NC(C)C4CC4)c(C(F)(F)F)c3c(=O)[nH]2)cc1F", "note": "(racemic) [6-147]", "IC50": 5.6},
      {"molecule": "O=C(N[C@H](CN1CC(F)C1)c1ccccc1)c1cc2c(=O)[nH]c(-c3ccc4ccccc4c3)cn2n1", "note": "[6-545]", "IC50": 0.77}
    ]}
  ]
}
